# Values quoted from earlier work in patent publication US20080051459A1, “LONG TERM 24-HOUR INTESTINAL ADMINISTRATION OF LEVODOPA/CARBIDOPA” (Solvay Pharmaceuticals GmbH, priority 2006, published 2008).
# Test system: patient
# Conditions: one patient; from 86 to 100 mg/hour in about 5 weeks
structure (smiles),measurement,value
N[C@@H](Cc1ccc(O)c(O)c1)C(=O)O [levodopa],Increase in administration rate (dose requirement),16%
